Bounds are passed on as bounds.

The subject of this assay is p-IKKa levels in L363 (NIK translocated multiple myeloma) cells. The assay is described as follows: Assay 2: Effect of compounds on p-IKKa levels in L363 (NIK translocated multiple myeloma) cells. The class given is cell-based. To be noted: Homo sapiens, L-363, 6 h, read-out: Assay 2 IC50 (nM), p-IKKa (Ser 176/180) in BAFF stimulated L363 cells with MG132, 6 h; average if tested more than once. An outline of the steps:
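L363 cells incubated overnight ± 250 ng/ml BAFF, then 6 h at 37 °C with compound (0.3% DMSO) ± 10 μM MG132. Lysates assayed for p-IKKa (Ser176/180) by AlphaLISA SureFire. IC50 from sigmoidal fit of % inhibition normalized to BAFF/MG132-stimulated and unstimulated controls.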
Consider `CN1CC[C@@](O)(c2cc(-c3cccc(-c4ccnc(N[C@H]5CCC[C@@H](O)C5)n4)n3)no2)C1=O` [Example 450, (R)-3-Hydroxy-3-(3-(6-(2-(((1S,3R)-3-hydroxycyclohexyl)amino)pyrimidin-4-yl)pyridin-2-yl)isoxazol-5-yl)-1-methylpyrrolidin-2-one], for which the IC50 was in the range of 50 to 500 nM.

For `CN1CC[C@@](O)(c2cc(-c3cccc(-c4ccnc(NC5CCC(C(F)(F)F)CC5)n4)n3)no2)C1=O` (stereo partly drawn) [Example 451, (R)-3-Hydroxy-1-methyl-3-(3-(6-(2-((4-(trifluoromethyl)cyclohexyl)amino)pyrimidin-4-yl)pyridin-2-yl)isoxazol-5-yl)pyrrolidin-2-one], the IC50 is > 500 nM.

Consider `CN1CC[C@@](O)(c2cc(-c3cccc(-c4ccnc(NC5CCOCC5)n4)n3)no2)C1=O` [Example 452, (R)-3-Hydroxy-1-methyl-3-(3-(6-(2-((tetrahydro-2H-pyran-4-yl)amino)pyrimidin-4-yl)pyridin-2-yl)isoxazol-5-yl)pyrrolidin-2-one], for which the IC50 lay within 50 to 500 nM.

With `CN1CC[C@@](O)(c2cc(-c3cccc(-c4ccnc(NC5CCC5)n4)n3)no2)C1=O` [Example 453, (R)-3-(3-(6-(2-(Cyclobutylamino)pyrimidin-4-yl)pyridin-2-yl)isoxazol-5-yl)-3-hydroxy-1-methylpyrrolidin-2-one], the IC50 was in the range of 50 to 500 nM.

Turning to `CN1CC[C@@](O)(c2cc(-c3cccc(-c4ccnc(N[C@H]5CCCOC5)n4)n3)no2)C1=O` [Example 454, (R)-3-Hydroxy-1-methyl-3-(3-(6-(2-(((S)-tetrahydro-2H-pyran-3-yl)amino)pyrimidin-4-yl)pyridin-2-yl)isoxaozl-5-yl)pyrrolidin-2-one], the IC50 was 50 to 500 nM.

Regarding `CN1CC[C@@](O)(c2cc(-c3cccc(-c4ccnc(N[C@@H]5CCCOC5)n4)n3)no2)C1=O` [Example 455, (R)-3-Hydroxy-1-methyl-3-(3-(6-(2-(((R)-tetrahydro-2H-pyran-3-yl)amino)pyrimidin-4-yl)pyridin-2-yl)isoxazol-5-yl)pyrrolidin-2-one], the IC50 was > 500 nM.

With `CN1CC[C@@](O)(c2cc(-c3cccc(-c4ccnc(N[C@@H]5CCOC5)n4)n3)no2)C1=O` [Example 460, (R)-3-Hydroxy-1-methyl-3-(3-(6-(2-(((R)-tetrahydrofuran-3-yl)amino)pyrimidin-4-yl)pyridin-2-yl)isoxazol-5-yl)pyrrolidin-2-one], the IC50 lay in the range of 50 to 500 nM.

Consider `CNC(=O)c1cc(Nc2nccc(-c3cccc(-c4cc([C@]5(O)CCN(C)C5=O)on4)n3)n2)nn1C(C)C` [Example 464, (R)-3-((4-(6-(5-(3-Hydroxy-1-methyl-2-oxopyrrolidin-3-yl)isoxazol-3-yl)pyridin-2-yl)pyrimidin-2-yl)amino)-1-isopropyl-N-methyl-1H-pyrazole-5-carboxamide], for which the IC50 is < 50 nM.

`CN1CC[C@@](O)(c2cc(-c3cccc(-c4ccnc(NCC5(O)CC5)n4)n3)no2)C1=O` [Example 466, (R)-3-Hydroxy-3-(3-(6-(2-(((1-hydroxycyclopropyl)methyl)amino)pyrimidin-4-yl)pyridin-2-yl)isoxazol-5-yl)-1-mehtylpyrrolidin-2-one]: the IC50 was > 500 nM.

As for `CN1CCn2nc(Nc3nccc(-c4cccc(-c5cc([C@]6(O)CCN(C)C6=O)on5)n4)n3)cc2C1=O` [Example 467, (R)-2-((4-(6-(5-(3-Hydroxy-1-methyl-2-oxopyrrolidin-3-yl)isoxazol-3-yl)pyridin-2-yl)pyrimidin-2-yl)amino)-5-methyl-6,7-dihydropyrazolo[1,5-a]pyrazin-4(5H)-one], the IC50 was in the range of 50 to 500 nM.

Consider `CN1CC[C@@](O)(c2cc(-c3cccc(-c4ccnc(Nc5cnc6c(c5)COCC6)n4)n3)no2)C1=O` [Example 468, (R)-3-(3-(6-(2-((7,8-Dihydro-5H-pyrano[4,3-b]pyridin-3-yl)amino)pyrimidin-4-yl)pyridin-2-yl)isoxazol-5-yl)-3-hydroxy-1-methylpyrrolidin-2-one], for which the IC50 was < 50 nM.

On to `COC1CCC(Nc2nccc(-c3cccc(-c4cc([C@]5(O)CCN(C)C5=O)on4)n3)n2)CC1` (stereo partly drawn) [Example 469, (R)-3-Hydroxy-3-(3-(6-(2-((4-methoxycyclohexyl)amino)pyrimidin-4-yl)pyridin-2-yl)isoxazol-5-yl)-1-methylpyrrolidin-2-one], for which the IC50 is > 500 nM.

As to `CCS(=O)(=O)N1CCC(Nc2nccc(-c3cccc(-c4cc([C@]5(O)CCN(C)C5=O)on4)n3)n2)CC1` [Example 470, (R)-3-(3-(6-(2-((1-(Ethylsulfonyl)piperidin-4-yl)amino)pyrimidin-4-yl)pyridin-2-yl)isoxazol-5-yl)-3-hydroxy-1-methylpyrrolidin-2-one], the IC50 is < 50 nM.

Regarding `Cc1ncc(C#N)cc1Nc1nccc(-c2cccc(-c3cc([C@]4(O)CCN(C)C4=O)on3)n2)n1` [Example 471, (R)-5-((4-(6-(5-(3-Hydroxy-1-methyl-2-oxopyrrolidin-3-yl)isoxazol-3-yl)pyridin-2-yl)pyrimidin-2-yl)amino)-6-methylnicotinonitrile], the IC50 is < 50 nM.

In the case of `CNC(=O)c1cnc(C)c(Nc2nccc(-c3cccc(-c4cc([C@]5(O)CCN(C)C5=O)on4)n3)n2)c1` [Example 473, (R)-5-((4-(6-(5-(3-Hydroxy-1-methyl-2-oxopyrrolidin-3-yl)isoxazol-3-yl)pyridin-2-yl)pyrimidin-2-yl)amino)-N,6-dimethylnicotinamide], the IC50 fell in the range of 50 to 500 nM.

As to `CN1CC[C@@](O)(c2cc(-c3cccc(-c4ccnc(Nc5cnc6c(c5)CCCO6)n4)n3)no2)C1=O` [Example 474, (R)-3-(3-(6-(2-((3,4-Dihydro-2H-pyrano[2,3-b]pyridin-6-yl)amino)pyrimidin-4-yl)pyridin-2-yl)isoxazol-5-yl)-3-hydroxy-1-methylpyrrolidin-2-one], the IC50 was < 50 nM.

On to `COCc1cc(Nc2nccc(-c3cccc(-c4cc([C@]5(O)CCN(C)C5=O)on4)n3)n2)nn1C` [Example 475, (R)-3-Hydroxy-3-(3-(6-(2-((5-(methoxymethyl)-1-methyl-1H-pyrazol-3-yl)amino)pyrimidin-4-yl)pyridin-2-yl)isoxazol-5-yl)-1-methylpyrrolidin-2-one], for which the IC50 was < 50 nM.

As for `CN1CC[C@@](O)(c2cc(-c3cccc(-c4ccnc(NC5CCN(S(C)(=O)=O)CC5)n4)n3)no2)C1=O` [Example 476, (R)-3-Hydroxy-1-methyl-3-(3-(6-(2-((1-(methylsulfonyl)piperidin-4-yl)amino)pyrimidin-4-yl)pyridin-2-yl)isoxazol-5-yl)pyrrolidin-2-one], the IC50 lay in the range of 50 to 500 nM.

The values above are taken from US20250282768A1 (Janssen Pharmaceutica NV, priority 2022, published 2025).
